Measured values published in patent publication US8222404B2, “[1,2,4]Thiadiazin-3-yl acetic acid compound and methods of making the acetic acid compound” (Anadys Pharmaceuticals, Inc., priority 2008, dated 2012).

tested on: HCV Huh-luc/neo-ET replicon cells; assay: Luciferase-Based HCV Replicon Assay (EC50 (1b)); type: cell-based; settings: 72 hours exposure, luciferase activity
In short: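 EC50 (1b) derived from % inhibition of luciferase signal relative to untreated cells, background set by 100 nM BILN-2061 (protease inhibitor). Triplicate dose series added to replicon cells 24 h post-seeding; luminescence measured after 72 h compound exposure.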

Row | Structure (SMILES) | EC50 [nM]
1 | CS(=O)(=O)NCc1csc2c1S(=O)(=O)N=C(C1=C(O)C3C4CCC(C5CC54)C3N(Cc3ccc(F)cc3)C1=O)N2 (racemic) [Example 23, (rac-di-exo)-N-{3-[3-(4-Fluoro-benzyl)-6-hydroxy-4-oxo-3-aza-tetracyclo[6.3.2.0^2,7.0^9,11]tridec-5-en-5-yl]-1,1-dioxo-1,4-dihydro-1λ^6-thieno[2,3-e][1,2,4]thiadiazin-7-ylmethyl}-methanesulfonamide] | ≤ 5

same assay, conditions: Hepatitis C virus, 72 hours exposure, luciferase activity

Row | Structure (SMILES) | EC50 [nM]
2 | CC(C)CCC1(C)CN(C2CCCC2)C(=O)C(C2=NS(=O)(=O)c3c(CNS(C)(=O)=O)csc3N2)=C1O (racemic) [Example 21, rac-N-{3-[1-Cyclopentyl-4-hydroxy-5-methyl-5-(3-methyl-butyl)-2-oxo-1,2,5,6-tetrahydro-pyridin-3-yl]-1,1-dioxo-1,4-dihydro-1λ^6-thieno[2,3-e][1,2,4]thiadiazin-7-ylmethyl}-methanesulfonamide] | 100 to 1000
3 | CS(=O)(=O)NCc1csc2c1S(=O)(=O)N=C(C1=C(O)[C@@H]3[C@H]4CC[C@H](C4)[C@@H]3N(Cc3ccc(F)c(Cl)c3)C1=O)N2 [Example 37, N-{3-[(1R,2S,7R,8S)-3-(3-Chloro-4-fluoro-benzyl)-6-hydroxy-4-oxo-3-aza-tricyclo[6.2.1.0^2,7]undec-5-en-5-yl]-1,1-dioxo-1,4-dihydro-1λ^6-thieno[2,3-e][1,2,4]thiadiazin-7-ylmethyl}-methanesulfonamide] | 5 to 20
4 | CS(=O)(=O)NCc1csc2c1S(=O)(=O)N=C(C1=C(O)[C@@H]3[C@H]4CC[C@H](C4)[C@@H]3N(C3CCCCC3)C1=O)N2 [Example 97, N-[3-((1R,2S,7R,8S)-3-Cyclohexyl-6-hydroxy-4-oxo-3-aza-tricyclo[6.2.1.0^2,7]undec-5-en-5-yl)-1,1-dioxo-1,4-dihydro-1λ^6-thieno[2,3-e][1,2,4]thiadiazin-7-ylmethyl]-methanesulfonamide] | 100 to 1000
5 | CS(=O)(=O)NCc1csc2c1S(=O)(=O)N=C(C1=C(O)C3CCCCCC3N(Cc3ccccc3)C1=O)N2 (racemic) [Example 136, (rac-cis)-N-[3-(1-Benzyl-4-hydroxy-2-oxo-2,4a,5,6,7,8,9,9a-octahydro-1H-cyclohepta[b]pyridin-3-yl)-1,1-dioxo-1,4-dihydro-1λ^6-thieno[2,3-e][1,2,4]thiadiazin-7-ylmethyl]-methanesulfonamide] | 20 to 100
6 | CS(=O)(=O)NCc1csc2c1S(=O)(=O)N=C(C1=C(O)CC(C3CC3)N(Cc3ccc(F)cc3)C1=O)N2 (racemic) [Example 4, rac-N-{3-[6-Cyclopropyl-1-(4-fluoro-benzyl)-4-hydroxy-2-oxo-1,2,5,6-tetrahydro-pyridin-3-yl]-1,1-dioxo-1,4-dihydro-1λ^6-thieno[2,3-e][1,2,4]thiadiazin-7-ylmethyl}-methanesulfonamide] | 100 to 1000
7 | COc1ccc(CN2C(=O)C(C3=NS(=O)(=O)c4c(CNS(C)(=O)=O)csc4N3)=C(O)C3C4C=CC(C4)C32)c(OC)c1 (racemic) [Example 76, (rac-di-exo)-N-{3-[3-(2,4-Dimethoxy-benzyl)-6-hydroxy-4-oxo-3-aza-tricyclo[6.2.1.0^2,7]undeca-5,9-dien-5-yl]-1,1-dioxo-1,4-dihydro-1λ^6-thieno[2,3-e][1,2,4]thiadiazin-7-ylmethyl}-methanesulfonamide] | > 1000
8 | CS(=O)(=O)NCc1csc2c1S(=O)(=O)N=C(C1=C(O)[C@@H]3C4CCC(CC4)[C@@H]3N(Cc3ccccc3)C1=O)N2 [Example 48, N-[3-((2S,7R)-3-Benzyl-6-hydroxy-4-oxo-3-aza-tricyclo[6.2.2.0^2,7]dodec-5-en-5-yl)-1,1-dioxo-1,4-dihydro-1λ^6-thieno[2,3-e][1,2,4]thiadiazin-7-ylmethyl]-methanesulfonamide] | ≤ 5
9 | CS(=O)(=O)NCc1csc2c1S(=O)(=O)N=C(C1=C(O)[C@@H]3[C@@H]4CC[C@@H](C4)[C@@H]3N(Cc3ccc(F)c(Cl)c3)C1=O)N2 [Example 95, N-{3-[(1 S,2S,7R,8R)-3-(3-Chloro-4-fluoro-benzyl)-6-hydroxy-4-oxo-3-aza-tricyclo[6.2.1.0^2,7]undec-5-en-5-yl]-1,1-dioxo-1,4-dihydro-1λ^6-thieno[2,3-e][1,2,4]thiadiazin-7-ylmethyl}-methanesulfonamide] | 20 to 100
10 | COc1ccc(CN2C(=O)C(C3=NS(=O)(=O)c4c(CNS(C)(=O)=O)csc4N3)=C(O)[C@@H]3C4CCC(CC4)[C@@H]32)c(OC)c1 [Example 74, N-{3-[(2S,7R)-3-(2,4-Dimethoxy-benzyl)-6-hydroxy-4-oxo-3-aza-tricyclo[6.2.2.0^2,7]dodec-5-en-5-yl]-1,1-dioxo-1,4-dihydro-1λ^6-thieno[2,3-e][1,2,4]thiadiazin-7-ylmethyl}-methanesulfonamide] | > 1000
11 | Cc1cc(CN2C(=O)C(C3=NS(=O)(=O)c4c(CNS(C)(=O)=O)csc4N3)=C(O)C3CCCCCC32)ccc1F (racemic) [Example 139, (rac-cis)-N-{3-[1-(4-Fluoro-3-methyl-benzyl)-4-hydroxy-2-oxo-2,4a,5,6,7,8,9,9a-octahydro-1H-cyclohepta[b]pyridin-3-yl]-1,1-dioxo-1,4-dihydro-1λ^6-thieno[2,3-e][1,2,4]thiadiazin-7-ylmethyl}-methanesulfonamide] | > 1000
12 | CS(=O)(=O)NCc1csc2c1S(=O)(=O)N=C(C1=C(O)[C@@H]3C4CCC(CC4)[C@@H]3NC1=O)N2 [Example 82, N-[3-((2S,7R)-6-Hydroxy-4-oxo-3-aza-tricyclo[6.2.2.0^2,7]dodec-5-en-5-yl)-1,1-dioxo-1,4-dihydro-1λ^6-thieno[2,3-e][1,2,4]thiadiazin-7-ylmethyl]-methanesulfonamide] | > 1000
13 | CS(=O)(=O)NCc1csc2c1S(=O)(=O)N=C(C1=C(O)C3C4CCC(O4)C3N(Cc3ccc(F)cc3)C1=O)N2 (racemic) [Example 90, (rac-di-exo)-N-{3-[3-(4-Fluoro-benzyl)-6-hydroxy-4-oxo-11-oxa-3-aza-tricyclo[6.2.1.0^2,7]undec-5-en-5-yl]-1,1-dioxo-1,4-dihydro-1λ^6-thieno[2,3-e][1,2,4]thiadiazin-7-ylmethyl}-methanesulfonamide] | 5 to 20
14 | Cc1cc(CN2C(=O)C(C3=NS(=O)(=O)c4c(CNS(C)(=O)=O)csc4N3)=C(O)C3CCCCC32)ccc1F (racemic) [Example 131, (rac-cis)-N-{3-[1-(4-Fluoro-3-methyl-benzyl)-4-hydroxy-2-oxo-1,2,4a,5,6,7,8,8a-octahydro-quinolin-3-yl]-1,1-dioxo-1,4-dihydro-1λ^6-thieno[2,3-e][1,2,4]thiadiazin-7-ylmethyl}-methanesulfonamide] | 100 to 1000
15 | CC(C)C1CC(O)=C(C2=NS(=O)(=O)c3c(CNS(C)(=O)=O)csc3N2)C(=O)N1Cc1ccc(F)cc1 (racemic) [Example 8, rac-N-{3-[1-(4-Fluoro-benzyl)-4-hydroxy-6-isopropyl-2-oxo-1,2,5,6-tetrahydro-pyridin-3-yl]-1,1-dioxo-1,4-dihydro-1λ^6-thieno[2,3-e][1,2,4]thiadiazin-7-ylmethyl}-methanesulfonamide] | 20 to 100
16 | CC(C)(C)CCN1C(=O)C(C2=NS(=O)(=O)c3c(CNS(C)(=O)=O)csc3N2)=C(O)[C@@H]2[C@@H]3CC[C@@H](C3)[C@@H]21 [Example 59, N-{3-[(1S,2S,7R,8R)-3-(3,3-Dimethyl-butyl)-6-hydroxy-4-oxo-3-aza-tricyclo[6.2.1.0^2,7]undec-5-en-5-yl]-1,1-dioxo-1,4-dihydro-1λ^6-thieno[2,3-e][1,2,4]thiadiazin-7-ylmethyl}-methanesulfonamide] | 20 to 100
17 | CS(=O)(=O)NCc1csc2c1S(=O)(=O)N=C(C1=C(O)[C@@H]3C4CCC(CC4)[C@@H]3N(Cc3ccsc3)C1=O)N2 [Example 60, N-[3-((2S,7R)-6-Hydroxy-4-oxo-3-thiophen-3-ylmethyl-3-aza-tricyclo[6.2.2.0^2,7]dodec-5-en-5-yl)-1,1-dioxo-1,4-dihydro-1λ^6-thieno[2,3-e][1,2,4]thiadiazin-7-ylmethyl]-methanesulfonamide] | ≤ 5
18 | CS(=O)(=O)NCc1csc2c1S(=O)(=O)N=C(C1=C(O)[C@@H]3CCC[C@@H]3N(Cc3ccc(F)c(Cl)c3)C1=O)N2 [Example 113, (4aR,7aS)-N-{3-[1-(3-Chloro-4-fluoro-benzyl)-4-hydroxy-2-oxo-2,4a,5,6,7,7a-hexahydro-1H-[1]pyrindin-3-yl]-1,1-dioxo-1,4-dihydro-1λ^6-thieno[2,3-e][1,2,4]thiadiazin-7-ylmethyl}-methanesulfonamide] | 20 to 100
19 | CS(=O)(=O)NCc1csc2c1S(=O)(=O)N=C(C1=C(O)[C@@H]3[C@@H]4CC[C@@H](C4)[C@@H]3N(Cc3ccsc3)C1=O)N2 [Example 58, N-[3-((1S,2S,7R,8R)-6-Hydroxy-4-oxo-3-thiophen-3-ylmethyl-3-aza-tricyclo[6.2.1.0^2,7]undec-5-en-5-yl)-1,1-dioxo-1,4-dihydro-1λ^6-thieno[2,3-e][1,2,4]thiadiazin-7-ylmethyl]-methanesulfonamide] | 5 to 20
20 | CC(C)(C)CCN1C(=O)C(C2=NS(=O)(=O)c3c(CNS(C)(=O)=O)csc3N2)=C(O)[C@@H]2CCC[C@@H]21 [Example 129, (4aR,7aS)-N-{3-[1-(3,3-Dimethyl-butyl)-4-hydroxy-2-oxo-2,4a,5,6,7,7a-hexahydro-1H-[1]pyrindin-3-yl]-1,1-dioxo-1,4-dihydro-1λ^6-thieno[2,3-e][1,2,4]thiadiazin-7-ylmethyl}-methanesulfonamide] | 5 to 20
21 | CS(=O)(=O)NCc1csc2c1S(=O)(=O)N=C(C1=C(O)C3CCCCCC3NC1=O)N2 (racemic) [Example 87, (rac-cis)-N-[3-(4-Hydroxy-2-oxo-2,4a,5,6,7,8,9,9a-octahydro-1H-cyclohepta[b]pyridin-3-yl)-1,1-dioxo-1,4-dihydro-1λ^6-thieno[2,3-e][1,2,4]thiadiazin-7-ylmethyl]-methanesulfonamide] | > 1000
22 | CS(=O)(=O)NCc1csc2c1S(=O)(=O)N=C(C1=C(O)C3CCCCC3N(Cc3ccc(F)c(Cl)c3)C1=O)N2 (racemic) [Example 119, (rac-cis)-N-{3-[1-(3-Chloro-4-fluoro-benzyl)-4-hydroxy-2-oxo-1,2,4a,5,6,7,8,8a-octahydro-quinolin-3-yl]-1,1-dioxo-1,4-dihydro-1λ^6-thieno[2,3-e][1,2,4]thiadiazin-7-ylmethyl}-methanesulfonamide] | 100 to 1000
